Results on 11 compounds are retold here after patent US8906904B2, “Alkoxy pyrazoles as soluble guanylate cyclase activators” (Boehringer Ingelheim International GmbH, priority 2012, dated 2014).

Structures are written as SMILES. ≈ marks a conversion by molar mass, not a printed value.

The target of the first data set is T1, human soluble guanylate cyclase alpha 1 and beta 1 subunits (sGC) (Homo sapiens, UniProt Q02108+Q02153).
T1 construct: expressed in transfected cells; host or cells: Chinese hamster ovary (CHO) cells, stably transfected
T1 sequence (Q02108 1-690): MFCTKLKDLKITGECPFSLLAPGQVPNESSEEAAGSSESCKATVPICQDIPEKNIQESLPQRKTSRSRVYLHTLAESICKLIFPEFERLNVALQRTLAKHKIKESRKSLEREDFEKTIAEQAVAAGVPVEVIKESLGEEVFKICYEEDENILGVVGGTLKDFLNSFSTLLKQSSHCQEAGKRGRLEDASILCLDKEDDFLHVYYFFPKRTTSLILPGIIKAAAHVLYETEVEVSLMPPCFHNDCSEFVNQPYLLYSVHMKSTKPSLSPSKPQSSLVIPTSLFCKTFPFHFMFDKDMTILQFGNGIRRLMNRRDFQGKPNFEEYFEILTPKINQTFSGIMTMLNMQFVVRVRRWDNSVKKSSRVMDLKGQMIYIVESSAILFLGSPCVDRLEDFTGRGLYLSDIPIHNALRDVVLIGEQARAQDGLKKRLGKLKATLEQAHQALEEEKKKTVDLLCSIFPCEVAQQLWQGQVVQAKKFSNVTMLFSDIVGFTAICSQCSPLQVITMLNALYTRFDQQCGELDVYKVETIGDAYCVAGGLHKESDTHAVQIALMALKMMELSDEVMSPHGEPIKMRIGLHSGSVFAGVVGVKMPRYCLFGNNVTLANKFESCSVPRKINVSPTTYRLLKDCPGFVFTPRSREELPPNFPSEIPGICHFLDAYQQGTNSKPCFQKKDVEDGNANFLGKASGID
T1 sequence (Q02153 1-619): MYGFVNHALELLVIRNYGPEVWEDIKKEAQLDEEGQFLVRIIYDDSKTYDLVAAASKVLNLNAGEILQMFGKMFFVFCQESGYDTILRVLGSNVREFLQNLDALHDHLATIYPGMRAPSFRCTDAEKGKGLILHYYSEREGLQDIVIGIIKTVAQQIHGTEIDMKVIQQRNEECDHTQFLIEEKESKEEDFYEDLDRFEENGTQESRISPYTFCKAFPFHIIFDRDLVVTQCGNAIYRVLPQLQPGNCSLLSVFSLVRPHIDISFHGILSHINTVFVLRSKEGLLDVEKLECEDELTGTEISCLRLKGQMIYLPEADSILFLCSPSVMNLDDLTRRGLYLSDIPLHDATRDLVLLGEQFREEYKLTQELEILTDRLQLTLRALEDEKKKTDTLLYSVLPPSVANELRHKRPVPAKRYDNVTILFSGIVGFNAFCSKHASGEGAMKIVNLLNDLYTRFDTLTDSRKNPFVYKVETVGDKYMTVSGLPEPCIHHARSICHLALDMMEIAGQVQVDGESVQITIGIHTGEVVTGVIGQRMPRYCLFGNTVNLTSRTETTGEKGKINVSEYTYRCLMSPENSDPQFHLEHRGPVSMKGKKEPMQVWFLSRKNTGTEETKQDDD
Nature of the data set: sGC cellular activator assay (cGMP, HTRF). Format: cell-based. The following applies: CHO cells stably expressing human sGC alpha 1/beta 1, preincubated with 40 microM ODQ; cGMP readout; assay run with and without 50% human serum, Table 2 does not say which. The procedure, abridged:
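Heme-oxidized conditions: ODQ (40 microM, 1 h) pretreatment of CHO cells stably expressing human α1/β1 sGC, in buffer containing 0.1% BSA and IBMX.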
As to `COc1c(C(=O)O)cnn1-c1cccc(-c2cccc(C)c2OCc2ccc3c(c2)CN(C2COC2)C3)n1` [Compound 85], the half-maximal effective concentration (EC50) was 22 nM.
For `COc1c(C(=O)O)cnn1-c1cccc(-c2cccc(C)c2OCc2ccc3c(c2)CCN(C2CCOCC2C)C3)n1` (centres unmarked) [Compound 86], the EC50 was 41 nM.
In turn, `COc1c(C(=O)O)cnn1-c1cccc(-c2cccc(C)c2OCc2ccc3c(c2)CCN(C2CC4CCC(C2)O4)C3)n1` (centres unmarked) [Compound 87] yielded an EC50 of 55 nM.
Take `COc1c(C(=O)O)cnn1-c1cccc(-c2cccc(C(F)(F)F)c2OCc2ccc3c(c2C)CCN(C2COC2)C3)n1` [Compound 88]: a half-maximal effect (EC50) was put at 28 nM.
Consider `COc1c(C(=O)O)cnn1-c1cccc(-c2cccc(C)c2OCc2ccc3c(c2)C(C)(C)CN(C2CCOCC2)C3)n1` [Compound 89], for which a half-maximal effect (EC50) was put at 150 nM.
`COc1c(C(=O)O)cnn1-c1cccc(-c2cccc(C)c2OCc2ccc3c(c2)CCN([C@H]2CC[C@H](OC)CC2)C3)n1` [Compound 90] showed an EC50 of 69 nM.
The same measure, in the same setting: the result for `COc1c(C(=O)O)cnn1-c1cccc(-c2cccc(C)c2OCc2ccc3c(c2)CCN([C@H]2CC[C@@H](OC)CC2)C3)n1` [Compound 91] reads 75 nM; that for `COc1c(C(=O)O)cnn1-c1cccc(-c2cccc(C)c2OCc2ccc3c(c2)CCN(CC2COCCO2)C3)n1` (centres unmarked) [Compound 92], 20 nM; that for `COc1c(C(=O)O)cnn1-c1cccc(-c2cccc(C(F)(F)F)c2OCc2ccc3c(c2)CN(C2CCOCC2)C3)n1` [Compound 93], 37 nM.
The same measure, in the same setting: the result for `CCOc1c(C(=O)O)cnn1-c1cccc(-c2cccc(C)c2OCc2ccc3c(c2)CCN(C2CCOCC2F)C3)n1` (centres unmarked) [Compound 94] reads 45 nM; that for `CCOc1c(C(=O)O)cnn1-c1cccc(-c2cccc(C)c2OCc2ccc3c(c2)CCN(CC2CC(F)(F)C2)C3)n1` [Compound 96], 24 nM.

Tested on in another data set: not listed separately
The data set can be described thus: Assessment of solubility (McIlvaine buffers, 24 h shake, UPLC-UV). Format: physicochemical. The following applies: pH 2.2, aqueous buffer, kinetic from dmso stock. The essentials: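 Compounds from 10 mM DMSO stocks were shaken for 24 h at room temperature in McIlvaine buffers at pH 2.2, 4.5 and 6.8 (2.5% v/v DMSO final), then filtered. Filtrates were quantified by UPLC-UV at 254 nm against a 50:50 acetonitrile/water reference assumed fully dissolved, as a single determination.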
`COc1c(C(=O)O)cnn1-c1cccc(-c2cccc(C)c2OCc2ccc3c(c2)CN(C2COC2)C3)n1` [Compound 85] came in with a solubility at 24 h of 120 µg/mL (≈ 234 µM).
`COc1c(C(=O)O)cnn1-c1cccc(-c2cccc(C)c2OCc2ccc3c(c2)CCN(C2CCOCC2C)C3)n1` (centres unmarked) [Compound 86] registered a solubility at 24 h of 110 µg/mL (≈ 193 µM).
`COc1c(C(=O)O)cnn1-c1cccc(-c2cccc(C)c2OCc2ccc3c(c2)CCN(C2CC4CCC(C2)O4)C3)n1` (centres unmarked) [Compound 87] had a solubility at 24 h of 110 µg/mL (≈ 189 µM).
`COc1c(C(=O)O)cnn1-c1cccc(-c2cccc(C(F)(F)F)c2OCc2ccc3c(c2C)CCN(C2COC2)C3)n1` [Compound 88] returned a solubility at 24 h of 90 µg/mL (≈ 151 µM).
Compound `COc1c(C(=O)O)cnn1-c1cccc(-c2cccc(C)c2OCc2ccc3c(c2)C(C)(C)CN(C2CCOCC2)C3)n1` [Compound 89] gave a solubility at 24 h of 130 µg/mL (≈ 223 µM).
Take `COc1c(C(=O)O)cnn1-c1cccc(-c2cccc(C)c2OCc2ccc3c(c2)CCN([C@H]2CC[C@H](OC)CC2)C3)n1` [Compound 90]: the solubility at 24 h worked out at 100 µg/mL (≈ 172 µM).
The compound `COc1c(C(=O)O)cnn1-c1cccc(-c2cccc(C)c2OCc2ccc3c(c2)CCN([C@H]2CC[C@@H](OC)CC2)C3)n1` [Compound 91] gave a solubility at 24 h of 100 µg/mL (≈ 172 µM).
In turn, `COc1c(C(=O)O)cnn1-c1cccc(-c2cccc(C)c2OCc2ccc3c(c2)CCN(CC2COCCO2)C3)n1` (centres unmarked) [Compound 92] had a solubility at 24 h of 110 µg/mL (≈ 193 µM).
`COc1c(C(=O)O)cnn1-c1cccc(-c2cccc(C(F)(F)F)c2OCc2ccc3c(c2)CN(C2CCOCC2)C3)n1` [Compound 93] registered a solubility at 24 h of 98 µg/mL (≈ 165 µM).
The same measure, in the same setting: next, `CCOc1c(C(=O)O)cnn1-c1cccc(-c2cccc(C)c2OCc2ccc3c(c2)CCN(C2CCOCC2F)C3)n1` (centres unmarked) [Compound 94]: 91 µg/mL (≈ 155 µM).
`CCOc1c(C(=O)O)cnn1-c1cccc(-c2cccc(C)c2OCc2ccc3c(c2)CCN(CC2CC(F)(F)C2)C3)n1` [Compound 96] yielded a solubility at 24 h of 93 µg/mL (≈ 158 µM).

The same data set, now with this note: pH 4.5, aqueous buffer, kinetic from dmso stock.
`COc1c(C(=O)O)cnn1-c1cccc(-c2cccc(C)c2OCc2ccc3c(c2)CN(C2COC2)C3)n1` [Compound 85] had a solubility at 24 h of 96 µg/mL (≈ 187 µM).
For `COc1c(C(=O)O)cnn1-c1cccc(-c2cccc(C)c2OCc2ccc3c(c2)CCN(C2CCOCC2C)C3)n1` (centres unmarked) [Compound 86], the concentration in solution (solubility at 24 h) was 90 µg/mL (≈ 158 µM). This solubility at 24 h and that of the compound before are within 1.5-fold of each other.
`COc1c(C(=O)O)cnn1-c1cccc(-c2cccc(C)c2OCc2ccc3c(c2)CCN(C2CC4CCC(C2)O4)C3)n1` (centres unmarked) [Compound 87] registered a solubility at 24 h of 87 µg/mL (≈ 150 µM). This solubility at 24 h and that of the compound before are within 1.5-fold of each other.
For the compound `COc1c(C(=O)O)cnn1-c1cccc(-c2cccc(C(F)(F)F)c2OCc2ccc3c(c2C)CCN(C2COC2)C3)n1` [Compound 88], the solubility at 24 h came to 63 µg/mL (≈ 106 µM).
Turning to `COc1c(C(=O)O)cnn1-c1cccc(-c2cccc(C)c2OCc2ccc3c(c2)C(C)(C)CN(C2CCOCC2)C3)n1` [Compound 89], the solubility at 24 h came to 92 µg/mL (≈ 158 µM).
As to `COc1c(C(=O)O)cnn1-c1cccc(-c2cccc(C)c2OCc2ccc3c(c2)CCN([C@H]2CC[C@H](OC)CC2)C3)n1` [Compound 90], the concentration in solution (solubility at 24 h) was 81 µg/mL (≈ 139 µM).
As to `COc1c(C(=O)O)cnn1-c1cccc(-c2cccc(C)c2OCc2ccc3c(c2)CCN([C@H]2CC[C@@H](OC)CC2)C3)n1` [Compound 91], the solubility at 24 h was 81 µg/mL (≈ 139 µM).
Turning to `COc1c(C(=O)O)cnn1-c1cccc(-c2cccc(C)c2OCc2ccc3c(c2)CCN(CC2COCCO2)C3)n1` (centres unmarked) [Compound 92], the concentration in solution (solubility at 24 h) was 93 µg/mL (≈ 163 µM).
`COc1c(C(=O)O)cnn1-c1cccc(-c2cccc(C(F)(F)F)c2OCc2ccc3c(c2)CN(C2CCOCC2)C3)n1` [Compound 93] registered a solubility at 24 h of 77 µg/mL (≈ 130 µM). This solubility at 24 h and that of the compound before are within 1.5-fold of each other.
`CCOc1c(C(=O)O)cnn1-c1cccc(-c2cccc(C)c2OCc2ccc3c(c2)CCN(C2CCOCC2F)C3)n1` (centres unmarked) [Compound 94]: the solubility at 24 h stood at 68 µg/mL (≈ 116 µM).
Consider `CCOc1c(C(=O)O)cnn1-c1cccc(-c2cccc(C)c2OCc2ccc3c(c2)CCN(CC2CC(F)(F)C2)C3)n1` [Compound 96], for which the solubility at 24 h was determined as 67 µg/mL (≈ 114 µM). The solubility at 24 h values of the last two compounds are within 1.5-fold of each other.

The data set is the same for the next values; noted with them: pH 6.8, aqueous buffer, kinetic from dmso stock.
With `COc1c(C(=O)O)cnn1-c1cccc(-c2cccc(C)c2OCc2ccc3c(c2)CN(C2COC2)C3)n1` [Compound 85], the solubility at 24 h turned out to be 110 µg/mL (≈ 215 µM).
As for `COc1c(C(=O)O)cnn1-c1cccc(-c2cccc(C)c2OCc2ccc3c(c2)CCN(C2CCOCC2C)C3)n1` (centres unmarked) [Compound 86], the solubility at 24 h amounted to 91 µg/mL (≈ 160 µM).
On to `COc1c(C(=O)O)cnn1-c1cccc(-c2cccc(C)c2OCc2ccc3c(c2)CCN(C2CC4CCC(C2)O4)C3)n1` (centres unmarked) [Compound 87], for which the solubility at 24 h came out at 90 µg/mL (≈ 155 µM).
`COc1c(C(=O)O)cnn1-c1cccc(-c2cccc(C(F)(F)F)c2OCc2ccc3c(c2C)CCN(C2COC2)C3)n1` [Compound 88]: the solubility at 24 h came out at 75 µg/mL (≈ 126 µM). The solubility at 24 h values of the last two compounds are within 1.5-fold of each other.
As for `COc1c(C(=O)O)cnn1-c1cccc(-c2cccc(C)c2OCc2ccc3c(c2)C(C)(C)CN(C2CCOCC2)C3)n1` [Compound 89], the concentration in solution (solubility at 24 h) was 81 µg/mL (≈ 139 µM).
The compound `COc1c(C(=O)O)cnn1-c1cccc(-c2cccc(C)c2OCc2ccc3c(c2)CCN([C@H]2CC[C@H](OC)CC2)C3)n1` [Compound 90] yielded a solubility at 24 h of 81 µg/mL (≈ 139 µM).
As for `COc1c(C(=O)O)cnn1-c1cccc(-c2cccc(C)c2OCc2ccc3c(c2)CCN([C@H]2CC[C@@H](OC)CC2)C3)n1` [Compound 91], the solubility at 24 h worked out at 81 µg/mL (≈ 139 µM).
Same read-out and setting: the result for `COc1c(C(=O)O)cnn1-c1cccc(-c2cccc(C)c2OCc2ccc3c(c2)CCN(CC2COCCO2)C3)n1` (centres unmarked) [Compound 92] reads 96 µg/mL (≈ 168 µM); that for `COc1c(C(=O)O)cnn1-c1cccc(-c2cccc(C(F)(F)F)c2OCc2ccc3c(c2)CN(C2CCOCC2)C3)n1` [Compound 93], 81 µg/mL (≈ 136 µM).
`CCOc1c(C(=O)O)cnn1-c1cccc(-c2cccc(C)c2OCc2ccc3c(c2)CCN(C2CCOCC2F)C3)n1` (centres unmarked) [Compound 94] yielded a solubility at 24 h of 73 µg/mL (≈ 124 µM).
`CCOc1c(C(=O)O)cnn1-c1cccc(-c2cccc(C)c2OCc2ccc3c(c2)CCN(CC2CC(F)(F)C2)C3)n1` [Compound 96] displayed a solubility at 24 h of 75 µg/mL (≈ 127 µM).

The term EC50 denotes the concentration at which the effect is half-maximal. By solubility is commonly meant the dissolved amount per volume that the medium holds.
